Assay results as given in ChEMBL document CHEMBL4837198, “Design, synthesis and biological evaluation of 1H-indazole derivatives as novel ASK1 inhibitors” (Eur J Med Chem, 2021).
Active and inactive are the calls of the source. No cut-off for these calls is given here.

Key:
[1] = target: T1, Mitogen-activated protein kinase kinase kinase 5 (Homo sapiens, UniProt Q99683); test: Inhibition of human full length recombinant ASK1 using STK-Substrate-3 biotin as substrate in presence of ATP measured after 2 hrs by […] kinase assay
T1 sequence (Q99683 whole entry): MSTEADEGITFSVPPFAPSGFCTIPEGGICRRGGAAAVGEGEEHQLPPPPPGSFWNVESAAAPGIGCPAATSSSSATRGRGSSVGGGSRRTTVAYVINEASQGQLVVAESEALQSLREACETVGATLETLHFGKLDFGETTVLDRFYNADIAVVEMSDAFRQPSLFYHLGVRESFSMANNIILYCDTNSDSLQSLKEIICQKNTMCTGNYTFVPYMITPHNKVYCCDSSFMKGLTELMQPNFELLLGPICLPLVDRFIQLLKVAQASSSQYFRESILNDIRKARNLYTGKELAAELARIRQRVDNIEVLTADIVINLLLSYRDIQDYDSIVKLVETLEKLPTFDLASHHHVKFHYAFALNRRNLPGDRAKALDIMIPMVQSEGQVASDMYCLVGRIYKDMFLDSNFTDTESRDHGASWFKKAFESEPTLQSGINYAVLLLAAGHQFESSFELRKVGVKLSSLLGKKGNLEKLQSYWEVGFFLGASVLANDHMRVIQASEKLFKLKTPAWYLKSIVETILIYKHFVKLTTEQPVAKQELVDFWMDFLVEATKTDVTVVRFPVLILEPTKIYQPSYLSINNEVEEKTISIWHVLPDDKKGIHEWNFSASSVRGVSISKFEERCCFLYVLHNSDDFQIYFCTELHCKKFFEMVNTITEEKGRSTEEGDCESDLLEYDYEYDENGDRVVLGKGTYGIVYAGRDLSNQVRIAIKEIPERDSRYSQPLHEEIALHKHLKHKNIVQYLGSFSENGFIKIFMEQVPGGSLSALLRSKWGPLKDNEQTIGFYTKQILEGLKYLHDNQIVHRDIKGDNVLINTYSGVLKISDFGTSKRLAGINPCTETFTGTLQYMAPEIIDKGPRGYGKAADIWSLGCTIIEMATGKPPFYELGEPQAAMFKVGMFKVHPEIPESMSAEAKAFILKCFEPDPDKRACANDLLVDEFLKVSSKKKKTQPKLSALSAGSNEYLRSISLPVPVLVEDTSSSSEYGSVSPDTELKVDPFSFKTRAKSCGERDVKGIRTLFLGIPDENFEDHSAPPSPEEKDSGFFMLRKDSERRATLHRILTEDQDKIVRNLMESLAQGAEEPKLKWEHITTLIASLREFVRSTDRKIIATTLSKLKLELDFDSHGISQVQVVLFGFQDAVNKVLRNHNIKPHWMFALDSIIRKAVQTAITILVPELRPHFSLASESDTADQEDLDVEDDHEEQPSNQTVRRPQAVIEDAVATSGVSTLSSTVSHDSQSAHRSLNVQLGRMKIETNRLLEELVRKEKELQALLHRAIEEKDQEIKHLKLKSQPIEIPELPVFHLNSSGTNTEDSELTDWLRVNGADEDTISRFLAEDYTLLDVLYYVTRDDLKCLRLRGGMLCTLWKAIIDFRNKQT

[2] = target: T1, Mitogen-activated protein kinase kinase kinase 5; test: Inhibition of ASK1 in human HEK293 cells transfected with AP1 assessed as inhibition of AP1-induced firefly luciferase activity preincubated for 1 hr followed by PMA stimulation and measured after 6 hrs by luciferase reporter assay; assay type: cell-based
HT-29 [3] = test: Antiapoptotic activity against in human HT-29 cells assessed as inhibition of TNFalpha-induced caspase 3 activity by Western blot analysis; assay type: functional, cell-based
HT-29 [4] = test: Antiapoptotic activity against in human HT-29 cells assessed as inhibition of TNFalpha-induced upregulation of Bax expression by Western blot analysis; assay type: functional, cell-based
HT-29 [5] = test: Cytotoxicity against human HT-29 cells assessed as cell survival at 25 uM incubated for 24 hrs by CCK8 assay; assay type: cell-based; details: ht-29, 24 h
HT-29 [6] = test: Antiinflammatory activity in human HT-29 cells assessed as suppression of […]-stimulated p-JNK expression by Western blot analysis; assay type: functional, cell-based
HT-29 [7] = test: Antiapoptotic activity against in human HT-29 cells assessed as inhibition of TNFalpha-induced down regulation of Bcl2 expression by Western blot analysis; assay type: functional, cell-based
HT-29 [8] = test: Antiinflammatory activity in human HT-29 cells assessed as suppression of […]-stimulated p-P38 expression by Western blot analysis; assay type: functional, cell-based
HT-29 [9] = test: Antiapoptotic activity against in human HT-29 cells assessed as inhibition of TNFalpha-induced Bax/ Bcl2 ratio by Western blot analysis; assay type: functional, cell-based
HT-29 [10] = test: Antiinflammatory activity in human HT-29 cells assessed as suppression of […]-stimulated p-ASK1 expression by Western blot analysis; assay type: functional, cell-based
HT-29 [11] = test: Induction cell survival in TNFalpha-induced human HT-29 cells at 10 uM pretreated for 24 hrs followed by TNFalpha stimulation measured after 2 hrs by CCK8 assay; assay type: functional, cell-based

| SMILES | IC50 [1] [nM] | IC50 [2] [nM] | other results |
| --- | --- | --- | --- |
| CC(C)n1cnnc1-c1ccc2[nH]nc(-c3cccc(-c4cnn(C)c4)c3)c2c1 | 63.6 | 8330 | – |
| CC(C)n1cnnc1-c1ccc2[nH]nc(-c3cccc(NC(=O)c4ccc(C(F)(F)F)cc4)c3)c2c1 | 197 | – | – |
| c1cc(-c2n[nH]c3ccc(-c4nncn4C4CCCC4)cc23)cc(-n2cnc(C3CC3)c2)c1 | 54.1 | 5500 | – |
| CC(C)n1cnnc1-c1ccc2[nH]nc(-c3cccc(-c4cccnc4)c3)c2c1 | 283 | – | – |
| Cc1ccc(-c2n[nH]c3ccc(-c4nncn4C(C)C)cc23)cc1-n1cnc(C2CC2)c1 | 56.9 | 8730 | – |
| COCn1cc(-c2cccc(-c3n[nH]c4ccc(-c5nncn5C(C)C)cc34)c2)cn1 | 26.9 | 9810 | – |
| COc1cc(-c2n[nH]c3ccc(-c4nncn4C(C)C)cc23)cc(-n2cnc(C3CC3)c2)c1 | 48.6 | 11300 | – |
| c1cc(-c2n[nH]c3ccc(-c4nncn4C4CCCCC4)cc23)cc(-n2cnc(C3CC3)c2)c1 | 243 | – | – |
| CC(C)n1cnnc1-c1ccc2[nH]nc(-c3cccc(C(=O)NC4CC4)c3)c2c1 | 271 | – | – |
| CC(C)n1cnnc1-c1ccc2[nH]nc(-c3cccc(-c4ccnn4C)c3)c2c1 | 855 | – | – |
| CC(C)n1cnnc1-c1ccc2[nH]nc(-c3cccc(-n4cnc(C5CC5)n4)c3)c2c1 | 37 | 8880 | – |
| CCOC(C)n1cc(-c2cncc(-c3n[nH]c4ccc(-c5nncn5C(C)C)cc34)c2)cn1 (stereo unspecified) | 277 | – | – |
| c1cc(-c2n[nH]c3ccc(-c4nncn4C4CC4)cc23)cc(-n2cnc(C3CC3)c2)c1 | 50 | 7040 | – |
| O=C(Nc1cccc(-c2n[nH]c3ccc(-c4nnc[nH]4)cc23)c1)c1ccc(C(F)(F)F)cc1 | 532 | – | – |
| COc1ccc(-n2cnc(C3CC3)c2)cc1-c1n[nH]c2ccc(-c3nncn3C(C)C)cc12 | 270 | – | – |
| CC(C)n1cnnc1-c1ccc2[nH]nc(-c3cc(N4CCOCC4)cc(-n4cnc(C5CC5)c4)c3)c2c1 | 75.1 | – | – |
| CCOC(C)n1cc(-c2cccc(-c3n[nH]c4ccc(-c5nncn5C(C)C)cc34)c2)cn1 (stereo unspecified) | 29.9 | 4460 | Activity (HT-29 [3]): Active; Activity (HT-29 [4]): Active; Activity (HT-29 [5]): Non-Toxic; Activity (HT-29 [6]): Active; Activity (HT-29 [7]): Active; Activity (HT-29 [8]): Active; Activity (HT-29 [9]): Active; Activity (HT-29 [10]): Active; Activity (HT-29 [11]): Active |
| CC(C)n1cnnc1-c1ccc2[nH]nc(-c3ccc(N4CCOCC4)c(-n4cnc(C5CC5)c4)c3)c2c1 | 31.8 | 11600 | – |
| c1cc(-c2n[nH]c3ccc(-c4nncn4C4CCC4)cc23)cc(-n2cnc(C3CC3)c2)c1 | 70 | 7280 | – |
| c1cc(-c2n[nH]c3ccc(-c4cn[nH]c4)cc23)cc(-n2cnc(C3CC3)c2)c1 | 275 | – | – |
| Cc1cc(F)c(C(=O)Nc2cccc(-c3nncn3C(C)C)n2)cc1-n1cnc(C2CC2)c1 [SELONSERTIB] | – | – | Activity (HT-29 [3]): Active; Activity (HT-29 [4]): Active; Activity (HT-29 [5]): Non-Toxic; Activity (HT-29 [6]): Active; Activity (HT-29 [7]): Active; Activity (HT-29 [8]): Active; Activity (HT-29 [9]): Active; Activity (HT-29 [10]): Active; Activity (HT-29 [11]): Active |
| CC(C)n1cnnc1-c1ccc2[nH]nc(-c3cccc(-n4cnc(C5CC5)c4)c3)c2c1 | 62.2 | – | – |
| CC(C)n1cnnc1-c1ccc2[nH]nc(-c3cccc(C(N)=O)c3)c2c1 | 74.2 | – | – |
| CC(C)n1cnnc1-c1ccc2[nH]nc(-c3cccc(-c4cnn(C5CCOCC5)c4)c3)c2c1 | 50.1 | 12100 | – |
| CC(C)n1cnnc1-c1ccc2[nH]nc(-c3cccc(S(C)(=O)=O)c3)c2c1 | 733 | – | – |
| COCCNC(=O)c1cccc(-c2n[nH]c3ccc(-c4nncn4C(C)C)cc23)c1 | 245 | – | – |
| CC(C)n1cnnc1-c1ccc2[nH]nc(-c3cccc(C(=O)Nc4cnn(C)c4)c3)c2c1 | 144 | – | – |
| CCS(=O)(=O)Nc1cccc(-c2n[nH]c3ccc(-c4nncn4C(C)C)cc23)c1 | 19.8 | – | – |
